For twelve compounds, Ki and IC50 results are on record in US9790158B2, “Substituted tropolone derivatives and methods of use” (University of Connecticut, priority 2012, dated 2017).

human recombinant HDAC8, sequence (Q9BY41 whole entry): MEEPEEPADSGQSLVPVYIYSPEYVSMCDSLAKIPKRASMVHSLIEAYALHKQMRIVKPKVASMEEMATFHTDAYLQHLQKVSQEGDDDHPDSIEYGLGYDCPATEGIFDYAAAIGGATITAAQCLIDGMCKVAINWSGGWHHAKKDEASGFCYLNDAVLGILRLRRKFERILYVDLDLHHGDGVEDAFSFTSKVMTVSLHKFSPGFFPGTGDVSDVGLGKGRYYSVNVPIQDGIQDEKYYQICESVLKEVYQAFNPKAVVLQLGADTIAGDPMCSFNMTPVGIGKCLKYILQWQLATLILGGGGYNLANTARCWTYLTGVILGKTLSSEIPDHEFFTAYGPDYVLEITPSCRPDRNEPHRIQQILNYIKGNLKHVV

For the first test, the target named is human recombinant HDAC8 (Homo sapiens (Human), UniProt Q9BY41). Description: fluorogenic HDAC inhibition assay, HDAC8. Type of test: biochemical. The conditions noted are these: IC50 converted to Ki with KM (Cheng and Prusoff); read-out: Ki HDAC-8. On the procedure:
Key enzyme kinetic parameters for one class I HDAC (HDAC8) and one class Ha HDAC (HDAC4) were determined using commercially available human recombinant HDAC enzymes (BPS Bioscience, San Diego, Calif.) and fluorogenic HDAC assay kits (BPS Bioscience). Kinetic parameters were determined by performing HDAC activity assays at varied concentrations of the HDAC substrate according to the manufacturer's protocol. Assay data were analyzed via non-linear regression (GraphPad Software, Inc., CA). Inhibition assays were used to determine the half maximal inhibitory concentration, IC50, for tropolone analogs in HDAC8 and […]. The potent hydroxamic acid HDAC inhibitor, Trichostatin A (TSA), provided in the assay kit, served as a control for the assays. IC50 values for the tropolone analogs were converted to inhibition constants, Ki, for each of the inhibitors using the KM value in accordance with the techniques previously described by Cheng and Prusoff.
In the case of `O=c1c(O)ccccc1-c1ccccc1` [Example 1], the Ki was 0.17 nM.

On to `O=c1c(O)ccccc1-c1ccc2ccccc2c1` [Example 2], for which the Ki came to 7.63 nM.

On to `COc1ccc(-c2ccccc(O)c2=O)cc1` [Example 3], for which the Ki was determined as 0.14 nM.

Regarding `COc1ccc(OC)c(-c2ccccc(O)c2=O)c1` [Example 4], the inhibition constant Ki stood at 0.44 nM.

As for `COc1ccc(-c2ccccc(O)c2=O)c(OC)c1OC` [Example 5], the Ki came to 0.04 nM.

For the compound `O=c1cccc(-c2ccccc2)cc1O` [Example 6], the Ki was 19.4 nM.

With `COc1cccc(-c2cccc(O)c(=O)c2)c1` [Example 7], the Ki came out at 1.36 nM.

Turning to `COc1ccc(OC)c(-c2cccc(O)c(=O)c2)c1` [Example 8], the Ki amounted to 1.42 nM.

Consider `CC(C)c1cccc(O)c(=O)c1` [Example 9], for which the Ki stood at 105 nM.

Take `CC(C)(C)c1cccc(O)c(=O)c1` [Example 10]: the Ki was found to be 2.69 nM.

Consider `CCC(C)c1cccc(O)c(=O)c1` (stereo not shown) [Example 11], for which the Ki is 10.1 nM.

As to `O=c1cc(C2CCCC2)cccc1O` [Example 12], the Ki came to 23.3 nM.

The next test deals with human recombinant HDAC4 (Homo sapiens, UniProt P56524). In words: fluorogenic HDAC inhibition assay, HDAC4. Type of test: biochemical. The conditions noted are these: IC50 converted to Ki with KM (Cheng and Prusoff); read-out: Ki HDAC-4.
human recombinant HDAC4, sequence (P56524 whole entry, looked up): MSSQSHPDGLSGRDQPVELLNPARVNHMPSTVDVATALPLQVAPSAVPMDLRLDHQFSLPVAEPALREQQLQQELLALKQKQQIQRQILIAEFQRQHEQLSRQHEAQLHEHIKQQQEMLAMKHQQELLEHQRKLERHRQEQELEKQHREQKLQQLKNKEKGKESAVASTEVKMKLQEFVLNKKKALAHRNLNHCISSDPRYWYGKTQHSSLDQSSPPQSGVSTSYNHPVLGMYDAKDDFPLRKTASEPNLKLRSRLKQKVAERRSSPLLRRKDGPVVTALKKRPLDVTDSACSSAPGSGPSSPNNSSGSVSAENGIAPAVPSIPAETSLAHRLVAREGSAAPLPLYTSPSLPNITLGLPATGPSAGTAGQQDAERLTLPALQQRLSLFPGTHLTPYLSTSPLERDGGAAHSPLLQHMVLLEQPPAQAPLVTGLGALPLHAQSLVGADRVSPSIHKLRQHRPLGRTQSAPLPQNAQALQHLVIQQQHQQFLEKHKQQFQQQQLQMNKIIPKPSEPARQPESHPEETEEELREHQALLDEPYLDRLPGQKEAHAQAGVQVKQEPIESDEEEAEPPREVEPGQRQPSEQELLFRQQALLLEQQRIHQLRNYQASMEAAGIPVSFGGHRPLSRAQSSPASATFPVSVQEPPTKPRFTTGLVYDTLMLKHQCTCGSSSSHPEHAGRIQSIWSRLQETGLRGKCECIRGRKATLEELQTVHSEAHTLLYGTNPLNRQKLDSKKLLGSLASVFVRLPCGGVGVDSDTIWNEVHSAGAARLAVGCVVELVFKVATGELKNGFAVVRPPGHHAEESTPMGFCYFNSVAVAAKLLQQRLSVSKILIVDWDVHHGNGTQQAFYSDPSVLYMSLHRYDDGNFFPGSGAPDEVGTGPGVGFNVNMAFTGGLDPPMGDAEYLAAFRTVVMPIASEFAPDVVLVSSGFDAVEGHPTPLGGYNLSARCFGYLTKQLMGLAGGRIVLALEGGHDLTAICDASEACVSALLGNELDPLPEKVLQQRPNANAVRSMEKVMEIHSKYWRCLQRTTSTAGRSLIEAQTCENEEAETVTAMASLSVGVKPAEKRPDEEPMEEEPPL
Regarding `O=c1c(O)ccccc1-c1ccccc1` [Example 1], the Ki turned out to be 0.08 nM.

In the case of `O=c1c(O)ccccc1-c1ccc2ccccc2c1` [Example 2], the Ki came out at 0.54 nM.

For the compound `COc1ccc(-c2ccccc(O)c2=O)cc1` [Example 3], the Ki is 2.74 nM.

With `COc1ccc(OC)c(-c2ccccc(O)c2=O)c1` [Example 4], the inhibitory constant (Ki) turned out to be 184 nM.

Consider `COc1ccc(-c2ccccc(O)c2=O)c(OC)c1OC` [Example 5], for which the Ki came out at 59 nM.

For the compound `O=c1cccc(-c2ccccc2)cc1O` [Example 6], the Ki was found to be 72.8 nM.

On to `COc1cccc(-c2cccc(O)c(=O)c2)c1` [Example 7], for which the Ki came to 1.7 nM.

Regarding `COc1ccc(OC)c(-c2cccc(O)c(=O)c2)c1` [Example 8], the inhibition constant Ki is 541 nM.

In the case of `CC(C)c1cccc(O)c(=O)c1` [Example 9], the Ki was 3.32 nM.

For `CC(C)(C)c1cccc(O)c(=O)c1` [Example 10], the inhibitory constant (Ki) was determined as 489 nM.

For the compound `CCC(C)c1cccc(O)c(=O)c1` (stereo not shown) [Example 11], the Ki came to 94.5 nM.

For `O=c1cc(C2CCCC2)cccc1O` [Example 12], the Ki is 6.64 nM.

A further test relates to Jurkat cells. In words: cell-based cytotoxicity assay (Cell Titer 96 Aqueous One), Jurkat. The conditions noted are these: 72-h exposure, absorbance at 490 nm. On the procedure:
(§1) All cell lines were purchased from ATCC (Manassas, Va.). Jurkat cells were cultured in RPMI 1640 (ATCC) supplemented with 10% fetal bovine serum (FBS; Atlanta Biologicals, Lawrenceville, Ga.). HuT-78 cells were cultured in IMDM (ATCC) supplemented with 20% FBS (Atlanta Biologicals). HT-29 and HCT116 were cultured in McCoy's media (Life Technologies, Carlsbad Calif.) supplemented with 10% FBS (Atlanta Biologicals), 1% non-essential amino acids (Mediatech Inc., Manassas, Va.) and 1% penicillin/streptomycin (Mediatech Inc).
(§2) Confluent Jurkat and HuT-78 cells were seeded in triplicate at a density of 5×10^4 cells/well whereas HT-29 and HCT116 cells were seeded in triplicate at a density of 5×10^3 cells/well in 96-well plates. Cells were treated at varying concentrations (1 μM-100 μM) of either a tropolone analog or SAHA. DMSO served as a vehicle control. After a 72-h exposure, cytotoxicity was evaluated using the Cell Titer 96 Aqueous One kit (Promega, Madison, Wis.) according to the instructions of the manufacturer. Formazan content was determined by measuring the absorbance at 490 nm on an Infinite M200 microplate reader (Tecan Group Ltd., Switzerland) and analyzed via non-linear regression analysis (GraphPad Software, Inc.).
`O=c1cccc(-c2ccccc2)cc1O` [Example 6] showed an IC50 of 670 nM. In other words, the sub-micromolar range.

`COc1cccc(-c2cccc(O)c(=O)c2)c1` [Example 7] yielded an IC50 of 4620 nM.

Regarding `COc1ccc(OC)c(-c2cccc(O)c(=O)c2)c1` [Example 8], the IC50 amounted to 5880 nM.

`CC(C)c1cccc(O)c(=O)c1` [Example 9]: the IC50 worked out at 1100 nM.

In turn, `CC(C)(C)c1cccc(O)c(=O)c1` [Example 10] registered an IC50 of 4450 nM.

`CCC(C)c1cccc(O)c(=O)c1` (stereo not shown) [Example 11] displayed an IC50 of 590 nM.

In turn, `O=c1cc(C2CCCC2)cccc1O` [Example 12] showed an IC50 of 6300 nM.

Still in this test, the particulars now being: Homo sapiens, Jurkat; 72-h exposure, absorbance at 490 nm.
Compound `O=c1c(O)ccccc1-c1ccccc1` [Example 1] came in with an IC50 of 3330 nM.

As for `COc1ccc(-c2ccccc(O)c2=O)cc1` [Example 3], the IC50 stood at 620 nM.

`COc1ccc(OC)c(-c2ccccc(O)c2=O)c1` [Example 4] returned an IC50 of 750 nM.

For `COc1ccc(-c2ccccc(O)c2=O)c(OC)c1OC` [Example 5], inhibition was half-maximal at 1860 nM (IC50).

In a further test the test system is HuT-78 cells. In words: cell-based cytotoxicity assay (Cell Titer 96 Aqueous One), HuT-78. The note with it: 72-h exposure, absorbance at 490 nm. The procedure:
as §1, §2
On to `O=c1cccc(-c2ccccc2)cc1O` [Example 6], for which the IC50 stood at 4140 nM. This counts as single-digit micromolar.

`COc1cccc(-c2cccc(O)c(=O)c2)c1` [Example 7]: 8950 nM corresponded to half-maximal inhibition (IC50).

In turn, `COc1ccc(OC)c(-c2cccc(O)c(=O)c2)c1` [Example 8] returned an IC50 of 17100 nM.

Consider `CC(C)c1cccc(O)c(=O)c1` [Example 9], for which the IC50 is 4990 nM.

With `CC(C)(C)c1cccc(O)c(=O)c1` [Example 10], half-maximal inhibition (IC50) required 13100 nM.

The compound `CCC(C)c1cccc(O)c(=O)c1` (stereo not shown) [Example 11] returned an IC50 of 3250 nM.

`O=c1cc(C2CCCC2)cccc1O` [Example 12] gave an IC50 of 11400 nM.

Still in this test, the particulars now being: Homo sapiens, HuT78; 72-h exposure, absorbance at 490 nm.
The compound `O=c1c(O)ccccc1-c1ccccc1` [Example 1] had an IC50 of 7830 nM.

`COc1ccc(-c2ccccc(O)c2=O)cc1` [Example 3] returned an IC50 of 2870 nM.

`COc1ccc(OC)c(-c2ccccc(O)c2=O)c1` [Example 4] came in with an IC50 of 3050 nM. The IC50 values of the last two compounds are within 1.5-fold of each other.

In turn, `COc1ccc(-c2ccccc(O)c2=O)c(OC)c1OC` [Example 5] showed an IC50 of 4740 nM.
